Laboratory results as given in US12564596B2, “Agents and methods for modulating pathogen activity” (Griffith University, priority 2018, dated 2026).
Like-named read-outs stand apart in the source and are kept apart here.

Key:
N. gonorrhoeae strains = experiment: Well diffusion assay in the absence of human cells; set-up: species or system Neisseria gonorrhoeae; conditions: GC-agar, overnight 37° C.
Method: (§1) FIG. 22 is a graphical representation showing the effect of carbamazepine on N. gonorrhoeae in the absence of human cells. Well diffusion assays were performed in which N. gonorrhoeae strains were spread uniformly across the surface of GC-agar plates at a culture density of 10^7 bacterial per mL. Wells were then punctured within the agar surface to which carbamazepine (Cz; […], as noted), 0.2 μg/mL ceftriaxone (Cfx), 10 μg/mL ciprofloxacin (Cip), or 1% DMSO (vehicle control) were added. […] For agar plates in which a ZOI was not visible, data were recorded as the diameter of the well (6 mm), as indicated. Assays were performed in triplicate on 3 separate occasions. Data are presented as the mean and variance of the average values obtained for each assay; statistical significance was determined using a Student's t-test. […] This is consistent with a CR3-dependent, host-mediated mechanism of killing.
as §1, with “23” for “22”, “methyldopa” for “carbamazepine”, “methyldopa (Md;” for “carbamazepine (Cz;”
FIG. 24 is a graphical representation showing the effect of flufenamic acid on N. gonorrhoeae in the absence of human cells. Well diffusion assays were performed in which N. gonorrhoeae strains were spread uniformly across the surface of GC-agar plates at a culture density of 10^7 bacterial per mL. Wells were then punctured within the agar surface to which flufenamic acid ([…], as noted), 0.2 μg/mL ceftriaxone, 10 μg/mL ciprofloxacin, or 1% DMSO (vehicle control) were added. […] For agar plates in which a ZOI was not visible, data were recorded as the diameter of the well (6 mm), as indicated. Assays were performed in triplicate on 3 separate occasions. Data are presented as the mean and variance of the average values obtained for each assay; statistical significance was determined using a Student's t-test.

[1] = target: T1, human recombinant I-domain (rI-domain) of CD11b (Homo sapiens, UniProt P11215); experiment: Surface plasmon resonance binding to human rI-domain (KD)
T1 construct: made in house

[2] = target: T2, N. gonorrhoeae MS11 pilin interaction with human rI-domain (Homo sapiens, UniProt P11215); experiment: SPR 1:1 competition assay, MS11 pilin binding to rI-domain; conditions: for inhibition at 0.1 µM: 1:1 competition, 100 nM; for Block MS11 pilin in SPR: direct competition SPR; for Drug RU: drug alone flowed at 100 nM over immobilized rI-domain; for Pilin + Drug RU: drug and pilin flowed at 100 nM, 1:1
T2 construct: was performed with human rI-domain immobilized on a CM5 sensor chip surface; made in house
Method: To determine if drugs with high affinity interactions with the human rI-domain could inhibit the interaction with MS11 pilin or HIV, competition assay between primary T-cell derived WITO HIV and N. gonorrhoeae MS11 pilin and the drugs were performed as described Mubaiwa et al (2017, Sci Rep. 7(1):5693). Competition analysis SPR of N. gonorrhoeae MS11 pilin and human rI-domain interaction was performed with human rI-domain immobilized on a CM5 sensor chip surface (low immobilization—˜3500 RU compared to ˜14000 RU for initial screening and KD calculations). N. gonorrhoeae MS11 purified pilin, drug or drug and pilin were flowed at 100 nM over the I-domain and the response units of the interactions were recorded.

[3] = tested on: primary T-cell derived WITO HIV interaction with human rI-domain; experiment: SPR 1:1 competition assay, WITO HIV binding to rI-domain; conditions: for % inhibition: 1:1 competition, 1 μM; for Block HIV in SPR: direct competition SPR; for Drug RU: drug alone flowed at 1 μM over immobilized WITO HIV; for Pilin + Drug RU: drug and human rI-domain flowed at 1 μM, 1:1
Method: For competition analysis SPR of the HIV interaction with human rI-domain, primary T-cell derived WITO HIV was immobilized on a Cl sensor chip surface. Human rI-domain, drug or drug and human rI-domain were flowed at 1 μM over the immobilized HIV and the response units of the interactions were recorded. Any drug that could not compete with the virus or pilin binding to the rI-domain was also discarded. Remaining drugs were evaluated for known safety in humans and known therapeutic concentrations to determine if the drug would be tested, and at what concentrations, in in vitro cell models. All SPR sensorgrams and results plots were analyzed with Biacore S200 Evaluation Software (GE Healthcare Life Sciences).

[4] = tested on: N. gonorrhoeae strain MS11gfp adherence to CHO-CR3 cells; experiment: Fluorometric adherence assay, gonococci to CHO cells; assay type: cell-based, Neisseria gonorrhoeae
Method: The ability of carbamazepine to block adherence of N. gonorrhoeae strain MS11gfp to CHO-neo or CHO-CR3 cells was evaluated using a fluorometric adherence assay. Assays were performed essentially as described by Jen et al (2013, PLoS Pathog. 9(5):e1003377). In this regard, CHO-neo or CHO-CR3 cells were seeded to a 96-well plate and allowed to grow to confluence. MS11gfp gonococci were then used to challenge (1 h) CHO cells simultaneously with, or without, various concentrations of carbamazepine (as noted). Fluorescence (485/528 nm) intensity, corresponding to bacterial adherence, was recorded using a Synergy HT Multi-mode Microplate Reader (BioTek Instruments, Winooski, VT USA). The assay was performed in triplicate on 3 separate occasions. A Kruskal-Wallis k-sample analysis of variance was used to determine the statistical significance of the calculated mean of bacterial adherence.
(§2) The ability of the compounds, or negative controls to block adherence of N. gonorrhoeae strain MS11gfp to PEX cells, CHO-CR3, or CHO-neo cells was evaluated using a fluorometric microtiter plate assay. Assays were performed essentially as described by Jen et al. (2013, Plos Pathog 9(5): e1003377). In this regard, GFP-expressing gonococci were used to challenge (1 h) PEX or CHO cells immediately following compound addition. Fluorescence (485/528 nm) intensity, corresponding to bacterial adherence, was recorded using a Synergy HT Multi-mode Microplate Reader (BioTek Instruments, Winooski, VT USA). Blank wells, devoid of PEX or CHO cells, also were inoculated with bacteria and served as a control for non-specific binding. The assay was performed in triplicate on 3 separate occasions. A Student's t-test was used to determine the statistical significance of the calculated mean of bacterial adherence.

[5] = tested on: N. gonorrhoeae adherence to primary human cervical epithelial (PEX) cells; experiment: Fluorometric adherence assay, gonococci to PEX cells; assay type: cell-based, Neisseria gonorrhoeae; conditions: for gonococcal adherence to PEX cells compared with uninfected cells: MS11gfp; for gonococcal adherence to PEX cells with increasing concentrations: 1 h post-challenge; for inhibition at 0.01 µM: Neisseria gonorrhoeae, 1 h, read-out: inhibition of adherence to PEX cells
From the text: Briefly, six N. gonorrhoeae strains were used in the experiments. These included the laboratory strain, MS11; the low-passage isolates, 1291, UT38097, LT38885, PID-26, and SK92-679; all of which were transformed with the green fluorescent protein (GFP) expression plasmid, pCmGFP (GenBank accession number FJ172221) Srikhanta et al (2009, PLoS Pathog. 5(4):e1000400) and, thus, expressed GFP Edwards et al (2000, Infect Immun 68(9):5354-63). […] The ability of carbamazepine to block the adherence of N. gonorrhoeae to human, primary cervical epithelial (PEX) cells was evaluated using a fluorometric adherence assay. Assays were performed essentially as described by Jen et al (2013, supra). In this regard, PEX cells were seeded to a 96-well plate and allowed to grow to confluence. Gonococci were then used to challenge (1 h) PEX cells simultaneously with, or without, various concentrations of carbamazepine ([…], 10 nM, 1 μM, or 100 μM, as noted) or 1% DMSO (vehicle control). Uninfected PEX cells treated with 1% DMSO served as a control for background fluorescence. Fluorescence (485/528 nm) intensity, corresponding to bacterial adherence, was recorded using a Synergy HT Multi-mode Microplate Reader (BioTek Instruments, Winooski, VT USA). The assay was performed in triplicate on 3 separate occasions. A Student's t-test was used to determine the statistical significance of the calculated mean of bacterial adherence.
as §2

[6] = 0.2 μg/mL ceftriaxone, 10 μg/mL ciprofloxacin

T2 sequence (P11215 150-328): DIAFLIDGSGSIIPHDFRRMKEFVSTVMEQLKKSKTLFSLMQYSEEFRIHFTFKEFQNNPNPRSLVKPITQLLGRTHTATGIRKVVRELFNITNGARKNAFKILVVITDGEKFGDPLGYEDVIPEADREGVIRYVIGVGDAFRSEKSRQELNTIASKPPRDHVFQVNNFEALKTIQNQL
T1 sequence (P11215 150-328 limits assumed): as the sequence (P11215 150-328) above

Row | Structure (SMILES) | effect on N. gonorrhoeae in the absence of human cells (zone of inhibition) (N. gonorrhoeae strains; [6]) | Kd ([1]; SPR, single cycle kinetics, 25° C., PBS, read-out: KD) [nM] | inhibition at 0.1 µM [2] [%] | Block MS11 pilin in SPR [2] | Drug RU [2] [RU] | Pilin + Drug RU [2] [RU] | % inhibition [3] [%] | Block HIV in SPR [3] | Drug RU [3] [RU] | Pilin + Drug RU [3] [RU] | gonococcal adherence to CHO-CR3 cells compared with CHO-neo cells ([4]; 100 μM, 1 h post-challenge) | gonococcal adherence to CHO-CR3, but not CHO-neo, cells with increasing concentrations ([4]; 1 h post-challenge) | gonococcal adherence to PEX cells compared with uninfected cells ([5]; 1 μM) | gonococcal adherence to PEX cells compared with uninfected cells ([5]; 100 μM) | gonococcal adherence to PEX cells with increasing concentrations [5] | inhibition at 0.01 µM [5] [%] | effect on N. gonorrhoeae in the absence of human cells (zone of inhibition) (N. gonorrhoeae strains; 100 μM to 100 μM [sic]) | Kd [1] [nM] | blocking of the adherence of gonococci to CR3 ([4]; 100 μM, CHO-CR3 cells, 1 h) | effect on N. gonorrhoeae in the absence of human cells (zone of inhibition) (N. gonorrhoeae strains; concentrations of ≤1 μM)
1 | O=C(O)c1cn(C2CC2)c2cc(N3CCNCC3)c(F)cc2c1=O [ciprofloxacin] | direct effect in killing gonococci |  |  |  |  |  |  |  |  |  |  |  |  |  |  |  |  |  |  | 
2 | C[C@](N)(Cc1ccc(O)c(O)c1)C(=O)O [methyldopa, (S)-2-amino-3-(3,4-dihydroxyphenyl)-2-methyl-propanoic acid] |  | 1.01 | 88.9 | Yes | 4.578 | 8.003 | 93.94 | Yes | 0.296 | 3.692 | not significantly different than that recorded for CHO-neo cells | dose-dependent decrease | not significantly (p≥0.234) different than those obtained for vehicle (DMSO)-treated, uninfected PEX cells | not significantly (p≥0.234) different than that recorded for uninfected cells | dose-dependent decrease | ~85 | no effect |  |  | 
3 | CO/N=C(\C(=O)N[C@@H]1C(=O)N2C(C(=O)O)=C(CSc3nc(=O)c(=O)[nH]n3C)CS[C@H]12)c1csc(N)n1 [ceftriaxone] | direct effect in killing gonococci |  |  |  |  |  |  |  |  |  |  |  |  |  |  |  |  |  |  | 
4 | O=C(O)c1ccccc1Nc1cccc(C(F)(F)F)c1 [flufenamic acid, 2{[3-(trifluoromethyl)phenyl]amino}benzoic acid] |  |  | 79.8 | Yes | 4.627 | 10.872 | 85.47 | Yes | 0.473 | 8.857 |  | dose-dependent decrease |  |  | dose-dependent decrease | ~70 | no effect | 6.66 | Greater than 86% | no effect
